Test system: HIV-IIIb
Assay: Test A: Antiviral Assays in MT4 Cells
Format: cell-based
Details: Human immunodeficiency virus 1, IIIB, MT4, 120 h, Table I; MT-4 cells infected with HIV-IIIb, 5 days incubation, CellTiter-Glo readout
Experimental: The antiviral properties of a compound disclosed herein may be determined using Test A described below.
Test A: Antiviral Assays in MT4 Cells
For the antiviral assay utilizing MT-4 cells, 0.4 μL of […] test concentration of 3-fold serially diluted compound in DMSO was added to 40 μL of cell growth medium (RPMI 1640, 10% FBS, 1% penicillin/Streptomycin, 1% L-Glutamine, 1% HEPES) in each well of 384-well assay plates (10 concentrations) in quadruplicate.
1 mL aliquots of 2×10e6 MT-4 cells are pre-infected for 1 and 3 hrs respectively, @ 37° C. with 25 μL (MT4) or of either cell growth medium (mock-infected) or a fresh 1:250 dilution of an HIV-IIIb concentrated ABI stock (0.004 m.o.i. for MT4 cells). Infected and uninfected cells are diluted in cell growth medium and 35 μL of 2000 (for MT4) cells is added to each well of the assay plates.
Assay plates were then incubated in a 37° C. incubator. After 5 days of incubation, 25 μl of 2× concentrated CellTiter-Glo™ Reagent (catalog # G7573, Promega Biosciences, Inc., Madison, Wis.) was added to each well of the assay plate. Cell lysis was carried out by incubating at room temperature for 2-3 min and then chemiluminescence was read using the Envision reader (PerkinElmer).

| SMILES | EC50 [nM] |
| --- | --- |
| Cc1cc2ccc(C#CC(C)(O)c3cccnc3)cc2c(-c2ccc(Cl)cc2)c1[C@H](OC(C)(C)C)C(=O)O (stereo partly drawn) [Example 11, (2S)-2-tert-Butoxy-2-(1-(4-chlorophenyl)-7-(3-hydroxy-3-(pyridin-3-yl)but-1-ynyl)-3-methylnaphthalen-2-yl)acetic acid] | 24 |
| Cc1cc2cc(C#CC3CC3)ccc2c(-c2ccc3c4c(ccnc24)CCO3)c1[C@H](OC(C)(C)C)C(=O)O (atropisomer, axis not shown) [Example 21, (S)-2-tert-Butoxy-2-((R)-6-(cyclopropylethynyl)-1-(2,3-dihydropyrano[4,3,2-de]quinolin-7-yl)-3-methylnaphthalen-2-yl)acetic acid] | 169 |
| Cc1nc(C)c(C(C)(O)C#Cc2ccc3cc(C)c([C@H](OC(C)(C)C)C(=O)O)c(-c4ccc(Cl)cc4)c3c2)s1 (stereo partly drawn) [Example 13, (2S)-2-tert-Butoxy-2-(1-(4-chlorophenyl)-7-(3-(2,4-dimethylthiazol-5-yl)-3-hydroxybut-1-ynyl)-3-methylnaphthalen-2-yl)acetic acid] | 65 |
| Cc1cc2ccc(C#CC(O)(c3ccccc3)C(F)(F)F)cc2c(-c2ccc(Cl)cc2)c1[C@H](OC(C)(C)C)C(=O)O (stereo partly drawn) [Example 9, (2S)-2-tert-butoxy-2-(1-(4-chlorophenyl)-3-methyl-7-(4,4,4-trifluoro-3-hydroxy-3-phenylbut-1-ynyl)naphthalen-2-yl)acetic acid] | 186 |

Same assay, conditions: Human immunodeficiency virus 1, IIIB, MT4, 120 h, Table II; MT-4 cells infected with HIV-IIIb, 5 days incubation, CellTiter-Glo readout

| SMILES | EC50 [nM] |
| --- | --- |
| Cc1cc2cc(-c3cnc(N4CCOCC4)nc3)ccc2c(-c2ccc3c4c(ccnc24)CCO3)c1[C@H](OC(C)(C)C)C(=O)O (atropisomer, axis not shown) [Example 52] | 16.8 |
| Cc1cc2c3c(ccc2c(-c2ccc4c5c(ccnc25)CCO4)c1[C@H](OC(C)(C)C)C(=O)O)COC3 (atropisomer, axis not shown) [Example 67] | 52.3 |
| Cc1cc2c(N)cccc2c(-c2ccc3c4c(ccnc24)CCO3)c1[C@H](OC(C)(C)C)C(=O)O (atropisomer, axis not shown) [Example 91] | 11.7 |
| Cc1cc2c(C)c(-c3cnc(N4CCN(C)CC4)nc3)ccc2c(-c2ccc3c4c(ccnc24)CCO3)c1[C@H](OC(C)(C)C)C(=O)O (atropisomer, axis not shown) [Example 71] | 4.23 |
| Cc1cc2cc(-c3cncnc3C(C)C)ccc2c(-c2ccc3c4c(ccnc24)CCO3)c1[C@H](OC(C)(C)C)C(=O)O (atropisomer, axis not shown) [Example 62] | 41.1 |
| Cc1cc2ccccc2c(-c2ccc3c4c(ccnc24)CCO3)c1C(OC(C)(C)CCl)C(=O)O (stereo not shown) [Example 100] | 161 |
| Cc1cc2c(C(F)F)c(C)ccc2c(-c2ccc3c4c(ccnc24)CCO3)c1[C@H](OC(C)(C)C)C(=O)O (atropisomer, axis not shown) [Example 70] | 11.6 |
| Cc1cc2ccccc2c(-c2ccc3c4c(ccnc24)CCO3)c1[C@H](OC(C)(CF)CF)C(=O)O (atropisomer, axis not shown) [Example 105] | 15.4 |
| COc1ncc(-c2ccc3c(-c4ccc5c6c(ccnc46)CCO5)c([C@H](OC(C)(C)C)C(=O)O)c(C)cc3c2)cn1 (atropisomer, axis not shown) [Example 60] | 12.2 |
| COc1ncc(-c2ccc3c(-c4ccc5c6c(ccnc46)CCO5)c([C@H](OC(C)(C)C)C(=O)O)c(C)cc3c2)c(OC)n1 (atropisomer, axis not shown) [Example 49] | 13.8 |
| Cc1c([C@H](OC(C)(C)C)C(=O)O)c(-c2ccc3c4c(ccnc24)CCO3)c2ccccc2c1O (atropisomer, axis not shown) [Example 83] | 14.9 |
| Cc1cc2ccccc2c(-c2ccc3c4c(ccnc24)CCO3)c1[C@H](OC(C)(C)CCl)C(=O)O (atropisomer, axis not shown) [Example 99] | 40.5 |
| COc1ncc(-c2ccc3c(-c4ccc5c6c(ccnc46)CCO5)c([C@H](OC(C)(C)C)C(=O)O)c(C)cc3c2)c(O)n1 (atropisomer, axis not shown) [Example 47] | 59.2 |

Same assay, conditions: Table I; MT-4 cells infected with HIV-IIIb, 5 days incubation, CellTiter-Glo readout

| SMILES | EC50 [nM] |
| --- | --- |
| CCOCC(C)(C)O[C@H](C(=O)O)c1c(C)cc2ccccc2c1-c1ccc2c3c(ccnc13)CCO2 (atropisomer, axis not shown) [Example 27, (2S)-2-((R)-1-(2,3-Dihydropyrano[4,3,2-de]quinolin-7-yl)-3-methylnaphthalen-2-yl)-2-(1-ethoxy-2-methylpropan-2-yloxy)acetic acid] | 84 |
| COCC(C)(C)O[C@H](C(=O)O)c1c(C)cc2ccccc2c1-c1ccc2c3c(ccnc13)CCO2 (atropisomer, axis not shown) [Example 26, (2S)-2-((S)-1-(2,3-Dihydropyrano[4,3,2-de]quinolin-7-yl)-3-methylnaphthalen-2-yl)-2-(1-methoxy-2-methylpropan-2-yloxy)acetic acid] | 929 |

Same assay, conditions: Table II; MT-4 cells infected with HIV-IIIb, 5 days incubation, CellTiter-Glo readout

| SMILES | EC50 [nM] |
| --- | --- |
| Cc1cc2c(C)c(-c3cnc(N(C)C)nc3)ccc2c(-c2ccc3c4c(ccnc24)CCO3)c1[C@H](OC(C)(C)C)C(=O)O (atropisomer, axis not shown) [Example 72] | 7020 |
| Cc1cc2cc(-c3c(C)ncnc3C)ccc2c(-c2ccc3c4c(ccnc24)CCO3)c1[C@H](OC(C)(C)C)C(=O)O (atropisomer, axis not shown) [Example 58] | 7760 |
| Cc1c([C@H](OC(C)(C)C)C(=O)O)c(-c2ccc3c4c(ccnc24)CCO3)c2ccccc2c1C(F)F (atropisomer, axis not shown) [Example 87] | 1310 |
| Cc1cc2cc(-c3cnc(-c4cncnc4)nc3)ccc2c(-c2ccc3c4c(ccnc24)CCO3)c1[C@H](OC(C)(C)C)C(=O)O (atropisomer, axis not shown) [Example 38] | 45.2 |
| Cc1cc2cc(-c3ccc(-c4cncnc4)cc3)ccc2c(-c2ccc3c4c(ccnc24)CCO3)c1[C@H](OC(C)(C)C)C(=O)O (atropisomer, axis not shown) [Example 40] | 542 |
| Cc1cc2ccccc2c(-c2ccc3c4c(ccnc24)CCO3)c1[C@H](OC(C)(C)CCF)C(=O)O (atropisomer, axis not shown) [Example 97] | 43 |
| Cc1cc2cc(-c3c(C)ncnc3C)ccc2c(-c2ccc3c4c(ccnc24)CCO3)c1[C@H](OC(C)(C)C)C(=O)O (atropisomer, axis not shown) [Example 59] | 471 |
| Cc1cc2c(C)c(-c3cnc(N)nc3)ccc2c(-c2ccc3c4c(ccnc24)CCO3)c1[C@H](OC(C)(C)C)C(=O)O [Example 74] | 37800 |
| CC(C)(C)O[C@H](C(=O)O)c1c2c(c3ccccc3c1-c1ccc3c4c(ccnc14)CCO3)OCC2 (atropisomer, axis not shown) [Example 78] | 45.8 |
| Cc1cc2cc(C#Cc3cncnc3)ccc2c(-c2ccc3c4c(ccnc24)CCO3)c1[C@H](OC(C)(C)C)C(=O)O (atropisomer, axis not shown) [Example 43] | 121 |
| Cc1c([C@H](OC(C)(C)C)C(=O)O)c(-c2ccc3c4c(ccnc24)CCO3)c2ccccc2c1C(F)F (atropisomer, axis not shown) [Example 86] | 131 |
| Cc1cc2cc(-c3ccc4c(cnn4C)c3)ccc2c(-c2ccc3c4c(ccnc24)CCO3)c1[C@H](OC(C)(C)C)C(=O)O (atropisomer, axis not shown) [Example 44] | 55.6 |

Reference: patent publication US9284323B2, “Naphthalene acetic acid derivatives against HIV infection” (Gilead Sciences, Inc., priority 2012, dated 2016)
